# Test results from BindingDB's records for doi:10.1007/s10822-022-00478-x (Roche Innovation Center Basel, F. Hoffmann-La Roche Ltd., 2022).
# Target: cAMP and cAMP-inhibited cGMP 3',5'-cyclic phosphodiesterase 10A (Homo sapiens, UniProt Q9Y233)
# Test: PDE10A assay
# Procedure, shortened: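 Scintillation proximity readout of [3H]cGMP hydrolysis (50 nM final substrate, 15 min) by 2 ng/well human PDE10A after 15 min compound preincubation at RT, pH 7.5 with MgCl2. Four-parameter logistic fit gave IC50, reported as pIC50.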
# Chain of cAMP and cAMP-inhibited cGMP 3',5'-cyclic phosphodiesterase 10A (Q9Y233 as listed by the source): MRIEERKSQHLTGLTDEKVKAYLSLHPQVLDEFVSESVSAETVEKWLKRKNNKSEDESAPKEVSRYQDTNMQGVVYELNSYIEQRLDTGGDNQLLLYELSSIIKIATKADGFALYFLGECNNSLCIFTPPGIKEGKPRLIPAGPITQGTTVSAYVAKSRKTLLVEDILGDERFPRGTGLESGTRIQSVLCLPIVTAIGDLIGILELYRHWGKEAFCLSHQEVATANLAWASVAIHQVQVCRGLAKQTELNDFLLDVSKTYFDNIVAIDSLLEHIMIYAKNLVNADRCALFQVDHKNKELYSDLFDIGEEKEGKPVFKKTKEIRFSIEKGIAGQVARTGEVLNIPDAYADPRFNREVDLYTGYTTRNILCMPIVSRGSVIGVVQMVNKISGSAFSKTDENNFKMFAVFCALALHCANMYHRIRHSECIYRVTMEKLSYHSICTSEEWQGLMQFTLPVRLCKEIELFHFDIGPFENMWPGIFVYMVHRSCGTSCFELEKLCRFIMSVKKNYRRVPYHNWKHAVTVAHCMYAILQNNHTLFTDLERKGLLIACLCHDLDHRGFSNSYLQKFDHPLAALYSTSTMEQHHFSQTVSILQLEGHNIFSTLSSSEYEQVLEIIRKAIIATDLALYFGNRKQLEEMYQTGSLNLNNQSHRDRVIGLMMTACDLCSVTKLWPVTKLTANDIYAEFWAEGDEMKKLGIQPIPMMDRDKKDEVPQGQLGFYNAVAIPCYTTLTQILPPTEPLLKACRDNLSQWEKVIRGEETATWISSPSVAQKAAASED
row,IC50 [nM],Compound
1,30,"O=C(Nc1ccnn1S(=O)(=O)C(F)(F)F)c1nc(C2CC2)ccc1Nc1cncnc1 [Roche-Dataset for PDE10A, Compound 1004]"
2,675,"CN(C)C(=O)c1cc(NC(=O)c2nc(C3CC3)ccc2Nc2cncnc2)nn1C [Roche-Dataset for PDE10A, Compound 1005]"
3,1440,"CC(C)(NC(=O)c1nc(C2CC2)cnc1Nc1cncnc1)c1nnc(-c2cccnc2)o1 [Roche-Dataset for PDE10A, Compound 1006]"
4,3720,"Cc1nc2ccc(NC(=O)c3c(C(=O)N4CCC4)cnn3C)cn2n1 [Roche-Dataset for PDE10A, Compound 1007]"
5,371,"O=C(c1nc(C2CC2)cnc1Nc1cncnc1)N1CCN(Cc2ccccc2)CC1 [Roche-Dataset for PDE10A, Compound 1008]"
6,436,"Cn1ncc(C(=O)N2CCOCC2)c1C(=O)N[C@H]1CCn2cc(-c3ccccc3Cl)nc2C1 [Roche-Dataset for PDE10A, Compound 1009]"
7,1790,"COCC1(CNC(=O)c2nc(C3CC3)cnc2Nc2cncnc2)CC1 [Roche-Dataset for PDE10A, Compound 1010]"
8,49,"COc1cccc(NC(=O)c2nc(C3CC3)cnc2Nc2cncnc2)n1 [Roche-Dataset for PDE10A, Compound 1011]"
9,793,"CC(C)n1nc(NC(=O)c2nc(C3CC3)ccc2Nc2cncnc2)cc1C(=O)N(C)C [Roche-Dataset for PDE10A, Compound 1013]"
10,10000,"O=C(c1nc(C2CC2)cnc1Nc1cncnc1)N1CCN(CCc2ccccc2)CC1 [Roche-Dataset for PDE10A, Compound 1015]"
11,49,"CC(=O)c1nn(C)cc1NC(=O)c1nc(C2CC2)cnc1Nc1cncnc1 [Roche-Dataset for PDE10A, Compound 1016]"
12,768,"O=C(NCc1ccncn1)c1nc(C2CC2)cnc1Nc1cncnc1 [Roche-Dataset for PDE10A, Compound 1017]"
13,10000,"CNC(=O)c1cc(NC(=O)c2c(C(=O)N3CCC3)cnn2C)nn1C [Roche-Dataset for PDE10A, Compound 1021]"
14,2340,"CC(C)(C)CCNC(=O)c1nc(C2CC2)cnc1Nc1cncnc1 [Roche-Dataset for PDE10A, Compound 1022]"
15,130,"Cn1ncc(C(=O)N2CCC2)c1C(=O)Nc1ccnn1-c1ccccn1 [Roche-Dataset for PDE10A, Compound 1024]"
16,65,"Cc1nc2ccccc2nc1OCc1csc(N2CCCC2)n1 [Roche-Dataset for PDE10A, Compound 1025]"
17,170,"CNC(=O)c1cccc(NC(=O)c2nc(C3CC3)cnc2Nc2cncnc2)n1 [Roche-Dataset for PDE10A, Compound 1026]"
18,944,"COCCCNC(=O)c1nc(C2CC2)cnc1Nc1cncnc1 [Roche-Dataset for PDE10A, Compound 1027]"
19,890,"O=C(NCc1cncs1)c1nc(C2CC2)cnc1Nc1cncnc1 [Roche-Dataset for PDE10A, Compound 1028]"
20,397,"Cn1cc(C(=O)Nc2ccn3cc(-c4ccccc4)nc3n2)c(C(=O)NCc2ccccn2)n1 [Roche-Dataset for PDE10A, Compound 1029]"
21,368,"Cn1ncc(C(=O)N2CCC2)c1C(=O)Nc1ccn(CCN2CCOCC2)n1 [Roche-Dataset for PDE10A, Compound 1030]"
22,10000,"O=C(NC1CCS(=O)(=O)CC1)c1nc(C2CC2)cnc1Nc1cncnc1 [Roche-Dataset for PDE10A, Compound 1031]"
23,10000,"Cn1ncc(C(=O)N2CCC2)c1C(=O)Nc1nnc(-c2ccccn2)o1 [Roche-Dataset for PDE10A, Compound 1032]"
24,104,"Cn1nccc1NC(=O)c1nc(C2CC2)ccc1Nc1cncnc1 [Roche-Dataset for PDE10A, Compound 1033]"

row,IC50 [nM],Compound
1,1060,"Cn1ncc(C(=O)N2CCC2)c1C(=O)Nc1ccn(-c2ccc(Cl)cc2Cl)n1 [Roche-Dataset for PDE10A, Compound 1034]"
2,4330,"Cn1ncc(NC(=O)c2c(C(=O)N3CCC3)cnn2C)c1C(=O)N1CCCCC1 [Roche-Dataset for PDE10A, Compound 1035]"
3,110,"O=C(Nc1cn(Cc2ccccn2)cn1)c1nc(C2CC2)ccc1Nc1cncnc1 [Roche-Dataset for PDE10A, Compound 1036]"
4,29,"COC(=O)c1cccc(NC(=O)c2nc(C3CC3)cnc2Nc2cncnc2)n1 [Roche-Dataset for PDE10A, Compound 1037]"
5,1590,"O=C(NCC1CCC1)c1nc(C2CC2)cnc1Nc1cncnc1 [Roche-Dataset for PDE10A, Compound 1038]"
6,10000,"O=C(c1nc(C2CC2)cnc1Nc1cncnc1)N1CCN(C2CCCC2)CC1 [Roche-Dataset for PDE10A, Compound 1039]"
7,10000,"O=C(c1nc(C2CC2)cnc1Nc1cncnc1)N1CCN(C2CCCCC2)CC1 [Roche-Dataset for PDE10A, Compound 1040]"
8,965,"O=C(NC1CCCC1)c1nc(C2CC2)cnc1Nc1cncnc1 [Roche-Dataset for PDE10A, Compound 1041]"
9,854,"CC(C)c1cc(NC(=O)c2c(C(=O)N3CCC3)cnn2C)n(C2CCCC2)n1 [Roche-Dataset for PDE10A, Compound 1042]"
10,396,"Cn1ncc(C(=O)N2CCC2)c1C(=O)Nc1ccn(-c2ccccc2F)n1 [Roche-Dataset for PDE10A, Compound 1043]"
11,10000,"O=C(c1nc(C2CC2)cnc1Nc1cncnc1)N1CCC(O)(Cc2ccccc2)CC1 [Roche-Dataset for PDE10A, Compound 1044]"
12,197,"O=C(NC1CCN(c2ccccn2)CC1)c1nc(C2CC2)ccc1Nc1cncnc1 [Roche-Dataset for PDE10A, Compound 1045]"
13,649,"Cc1cc(NC(=O)c2c(C(=O)N3CCC3)cnn2C)n(C2CCCC2)n1 [Roche-Dataset for PDE10A, Compound 1046]"
14,432,"COc1ccc2c(=O)n(C)c3cnc(-c4ccccc4Cl)n3c2c1 [Roche-Dataset for PDE10A, Compound 1048]"
15,136,"Cc1cc(NC(=O)c2c(C(=O)N3CCC3)cnn2C)nn1CC(F)F [Roche-Dataset for PDE10A, Compound 1050]"
16,43,"Cn1ncc(C(=O)N2CCC2)c1C(=O)Nc1ccn(-c2cc(Cl)cc(Cl)c2)n1 [Roche-Dataset for PDE10A, Compound 1051]"
17,367,"O=C(N[C@H]1CCN(c2ccccn2)C1)c1nc(C2CC2)ccc1Nc1cncnc1 [Roche-Dataset for PDE10A, Compound 1052]"
18,14,"CNC(=O)c1c(NC(=O)c2nc(C3CC3)ccc2Nc2cncnc2)cnn1C [Roche-Dataset for PDE10A, Compound 1053]"
19,1480,"COc1ccc(NC(=O)c2nc(C3CC3)cnc2Nc2cncnc2)nn1 [Roche-Dataset for PDE10A, Compound 1054]"
20,258,"CC(C)Cn1ccc(NC(=O)c2c(C(=O)N3CCC3)cnn2C)n1 [Roche-Dataset for PDE10A, Compound 1055]"
21,594,"CCn1ncc(NC(=O)c2c(C(=O)N3CCC3)cnn2C)c1C(=O)NCC(C)C [Roche-Dataset for PDE10A, Compound 1057]"
22,1790,"O=C(NC1CCOCC1)c1nc(C2CC2)cnc1Nc1cncnc1 [Roche-Dataset for PDE10A, Compound 1059]"
23,1630,"CS(=O)(=O)CCNC(=O)c1nc(C2CC2)cnc1Nc1cncnc1 [Roche-Dataset for PDE10A, Compound 1061]"
